# Data from PMC9297976 (Journal of Applied Toxicology, 2021).
# Experiments:
# [1] = target: T1, medaka ARβ (mArβ) (Oryzias latipes, UniProt D1MV73); assay: Medaka ARβ reporter gene assay, agonist assay; assay type: cell-based, Japanese medaka (Oryzias latipes); details: MAC = 1.0 × 10^−4 M
# T1 sequence (D1MV73 1-744): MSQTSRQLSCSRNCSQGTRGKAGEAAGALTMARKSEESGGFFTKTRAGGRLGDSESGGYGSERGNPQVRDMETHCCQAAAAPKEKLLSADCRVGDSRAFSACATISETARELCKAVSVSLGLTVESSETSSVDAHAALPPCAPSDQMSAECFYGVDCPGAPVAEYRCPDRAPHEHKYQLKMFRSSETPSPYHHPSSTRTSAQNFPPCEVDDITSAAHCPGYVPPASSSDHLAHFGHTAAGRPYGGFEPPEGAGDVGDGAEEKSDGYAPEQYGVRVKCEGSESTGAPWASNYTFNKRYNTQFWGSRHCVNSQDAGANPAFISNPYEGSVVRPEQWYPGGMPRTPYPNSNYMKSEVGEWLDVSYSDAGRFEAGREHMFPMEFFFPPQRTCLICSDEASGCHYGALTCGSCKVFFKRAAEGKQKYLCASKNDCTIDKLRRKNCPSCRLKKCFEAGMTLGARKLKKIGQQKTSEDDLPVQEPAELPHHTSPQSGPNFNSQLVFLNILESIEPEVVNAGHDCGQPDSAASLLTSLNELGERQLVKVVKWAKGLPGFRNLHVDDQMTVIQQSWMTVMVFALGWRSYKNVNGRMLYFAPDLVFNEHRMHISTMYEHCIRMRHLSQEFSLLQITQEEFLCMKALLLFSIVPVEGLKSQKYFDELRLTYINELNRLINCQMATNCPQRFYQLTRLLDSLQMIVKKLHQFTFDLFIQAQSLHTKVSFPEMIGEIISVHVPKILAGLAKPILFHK
# [2] = target: T1, medaka ARβ (mArβ); assay: Medaka ARβ reporter gene assay, antagonist assay; assay type: cell-based, Japanese medaka (Oryzias latipes)
# [3] = target: T2, medaka Esr1 (mEsr1) (Oryzias latipes, UniProt P50241); assay: Medaka Esr1 reporter gene assay, antagonist assay; assay type: cell-based, Japanese medaka (Oryzias latipes); details: E2 spiked at 1.0 nM (B); MAC = 1.0 × 10^−5 M
# T2 sequence (P50241 1-620): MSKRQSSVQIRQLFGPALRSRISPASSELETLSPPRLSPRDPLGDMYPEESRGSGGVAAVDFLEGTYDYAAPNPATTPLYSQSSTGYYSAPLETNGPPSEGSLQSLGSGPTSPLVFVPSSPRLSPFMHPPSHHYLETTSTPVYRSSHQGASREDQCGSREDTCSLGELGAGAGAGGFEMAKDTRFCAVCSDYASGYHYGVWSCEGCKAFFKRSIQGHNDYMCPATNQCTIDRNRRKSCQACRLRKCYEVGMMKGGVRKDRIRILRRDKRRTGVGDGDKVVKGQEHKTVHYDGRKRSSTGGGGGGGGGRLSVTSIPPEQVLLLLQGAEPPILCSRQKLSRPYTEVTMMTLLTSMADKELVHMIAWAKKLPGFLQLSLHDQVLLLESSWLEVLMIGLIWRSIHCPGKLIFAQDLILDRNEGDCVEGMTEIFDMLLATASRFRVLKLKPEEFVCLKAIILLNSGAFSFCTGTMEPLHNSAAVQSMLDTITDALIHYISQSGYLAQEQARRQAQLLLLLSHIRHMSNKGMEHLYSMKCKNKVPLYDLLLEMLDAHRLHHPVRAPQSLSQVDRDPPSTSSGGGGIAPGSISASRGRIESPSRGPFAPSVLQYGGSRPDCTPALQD
# [4] = tested on: Japanese medaka; details: 12 h after fertilization to 101 days of age; ref Seki, Yokota, Matsubara, et al. (2003); cited from earlier work
# [5] = tested on: Japanese medaka (Oryzias latipes); assay: Fish Short‐Term Reproduction Assay; assay type: in vivo; details: for GSI Female / GSI Male / HSI Female / HSI Male / Length Female / Length Male / Weight Female / Weight Male: completion of exposure
# [6] = target: T2, medaka Esr1 (mEsr1); assay: cell-based; set-up: species or system Japanese medaka (Oryzias latipes); details: mode of action in which EC50 or PC10 was obtained in RGA
# [7] = 940 μg/L measured, 21 d, sig. ↓ vs control
# [8] = measured concentration 58.4 μg/L
# [9] = measured concentration 227 μg/L
# [10] = measured concentration 940 μg/L
smiles,measurement,setting,value
"CCC(C)(C)c1ccc(O)cc1 [Chemical 4tPP, 4‐tert‐Pentylphenol]",Agonistic activity,[1],NE (MAC = 1.0 × 10^−4 M)
same,Antagonistic activity IC30,[2]; 11‐KT spiked at 50 nM (D),IC30 = 1.7 × 10^−5 M^(D)
same,In vitro positive: aAr,[2]; mode of action in which IC50 or IC30 was obtained in RGA,aAr
same,Antagonistic activity on mArβ (in words),[2]; transcriptional activity on mArβ by 11KT,inhibitory potency
same,Antagonistic activity,[3],NE (MAC = 1.0 × 10^−5 M)^(B)
same,LOEC on abnormal sexual differentiation,[4],224 µg/L
same,LOEC on hepatic VTG induction,[4],≤ 51.1 µg/L
same,LOEC on reproductive impairment,[4],224 µg/L
same,Fertility rate,"[5]; 58.4 μg/L measured, 21 d",94 ± 1.7%
same,"Hepatic VTG, female","[5]; 58.4 μg/L measured, 21 d","2,930 ± 737 ng/mg‐liver"
same,Mortality,"[5]; 58.4 μg/L measured, 21 d",4.2%
same,"Mortality, number of dead fish","[5]; 58.4 μg/L measured, 21 d",1
same,Number of fertilized eggs (per female per day),"[5]; 58.4 μg/L measured, 21 d",20 ± 3.2
same,Number of total eggs (per female per day),"[5]; 58.4 μg/L measured, 21 d",21 ± 3.1
same,SSC female (joint plates with papillary processes),"[5]; 58.4 μg/L measured, 21 d",0 ± 0
same,"Hepatic VTG, male","[5]; 58.4 μg/L measured, 21 d, sig. ↑ vs control",970 ± 858 ng/mg‐liver
same,Fertility rate,"[5]; 227 μg/L measured, 21 d",94 ± 2.5%
same,"Hepatic VTG, female","[5]; 227 μg/L measured, 21 d","3,070 ± 686 ng/mg‐liver"
same,Mortality,"[5]; 227 μg/L measured, 21 d",4.2%
same,"Mortality, number of dead fish","[5]; 227 μg/L measured, 21 d",1
same,Number of fertilized eggs (per female per day),"[5]; 227 μg/L measured, 21 d",19 ± 2.9
same,Number of total eggs (per female per day),"[5]; 227 μg/L measured, 21 d",20 ± 2.7
same,SSC female (joint plates with papillary processes),"[5]; 227 μg/L measured, 21 d",0 ± 0
same,"Hepatic VTG, male","[5]; 227 μg/L measured, 21 d, sig. ↑ vs control","3,700 ± 2,300 ng/mg‐liver"
same,Fertility rate,"[5]; 940 μg/L measured, 21 d",81 ± 8.9%
same,Mortality,"[5]; 940 μg/L measured, 21 d",13%
same,"Mortality, number of dead fish","[5]; 940 μg/L measured, 21 d",3
same,SSC female (joint plates with papillary processes),"[5]; 940 μg/L measured, 21 d",0 ± 0
same,"Hepatic VTG, female","[5]; 940 μg/L measured, 21 d, sig. ↑ vs control","8,100 ± 3,340 ng/mg‐liver"
same,Number of fertilized eggs (per female per day),[5]; [7],13 ± 3.5
same,Number of total eggs (per female per day),[5]; [7],16 ± 4.7
same,Change of hepatic VTG levels in females (in words),[5]; 21 d,significant increase
same,"Fecundity, number of total eggs (in words)",[5]; 21 d,statistically significant decrease
same,"LOEC, elevated hepatic VTG in males",[5]; 21 d,58.4 µg/L
same,LOECREPRO,[5]; LOEC on reproduction (fecundity and/or fertility),940 µg/L
same,minimal effective concentration,"[5]; Oryzias latipes, 504 h, read-out: LOECmVTG",0.0584 µg/mL
same,Fertility rate (in words),[5]; chemicals with significant decrease of number of total eggs,no significant effect
same,LOECREPRO (reduction in fecundity or fertility),[5]; concentrations without overt toxicity,940 µg/L
same,LOECTOX,[5]; lowest observed effect concentration on mortality,ND (>940) μg/L
same,GSI Female,[5]; [8],10.0 ± 0.6%
same,GSI Male,[5]; [8],0.89 ± 0.11%
same,HSI Female,[5]; [8],4.3 ± 0.50%
same,HSI Male,[5]; [8],2.3 ± 0.18%
same,Length Female,[5]; [8],36.0 ± 0.5 mm
same,Length Male,[5]; [8],37.8 ± 1.2 mm
same,Weight Female,[5]; [8],558 ± 48 mg
same,Weight Male,[5]; [8],590 ± 39 mg
same,GSI Female,[5]; [9],9.9 ± 1.0%
same,GSI Male,[5]; [9],0.73 ± 0.16%
same,HSI Female,[5]; [9],4.2 ± 0.44%
same,HSI Male,[5]; [9],2.2 ± 0.33%
same,Length Female,[5]; [9],35.5 ± 0.7 mm
same,Length Male,[5]; [9],36.2 ± 0.6 mm
same,Weight Female,[5]; [9],523 ± 48 mg
same,Weight Male,[5]; [9],546 ± 23 mg
same,GSI Female,[5]; [10],8.9 ± 1.2%
same,GSI Male,[5]; [10],0.73 ± 0.13%
same,HSI Female,[5]; [10],3.9 ± 0.73%
same,HSI Male,[5]; [10],3.6 ± 0.50%
same,Length Female,[5]; [10],36.1 ± 1.6 mm
same,Length Male,[5]; [10],35.6 ± 0.8 mm
same,Weight Female,[5]; [10],588 ± 130 mg
same,Weight Male,[5]; [10],509 ± 47 mg
same,In vitro positive: Esr,[6],Esr
